Source: patent US7157561B2, “Methods of inhibiting transmission of a costimulatory signal of lymphocytes” (Roche Diagnostics Operations, Inc., priority 2001, dated 2007)

How the values were obtained:
antibody ATZ 3.1 = assay: Antibody specificity ELISA (competition of free drug with atazanavir-BSA conjugate), antibody ATZ 3.1; type: binding, mouse; conditions: for ED50 (M/L): free drug concentration giving 50% of binding in absence of free drug, 4-parameter logistic fit; for % Cross Rx: relative to atazanavir ED50
Procedure: (§1) Screening of growing hybridomas was carried out by an ELISA using the atazanavir-BSA conjugate (7) and free atazanavir. Microplates were coated with 50 μL atazanavir-BSA conjugate at 1 μg/mL in 0.1 M carbonate buffer, pH 9.5 for 1 hour at 37° C. (humidified). The plates were then emptied and filled with a post-coat solution consisting of Tris buffer, 1% gelatin hydrolysate, 2% sucrose, and 0/17% TWEEN 20 (all from Sigma Chemical Co.). The plates were incubated for an additional 1 hour at 37° C. (humidified) after which they were washed with phosphate-buffered saline containing 0.1% TWEEN 20. The plates were then filled with a 2% sucrose solution in 0.15 M Tris, pH 7.2–7.4 briefly, then emptied and allowed to air dry at room temperature. When dried, the plates were packed in zip-lock bags containing several desiccant pillows, sealed, and stored at 4° C. until use.
(§2) When the growing clones were judged ready for testing, 25 μL of supernatant from the wells were taken and transferred to 96-well flexible plates. Culture medium was added to each well to provide a 1:10 dilution of the media sample. Two atazanavir-BSA coated wells were used for each culture well tested. One well received 25 μL of PBS buffer, the other received 25 μL of PBS containing atazanavir drug at a concentration of 800 ng/ml. Twenty-five microliters of the diluted sample were transferred to each of two of the coated wells above. The plates were incubated covered for 1 hour at 37° C., then washed with PBS-TWEEN. The wells were then filled with 100 μL of goat anti-mouse IgG-HRP conjugate (Zymed Labs) diluted 1:5,000 in PBS-TWEEN and the plates re-incubated for 1 hour. The plates were then washed again, and 100 μL of K-BLUE SUBSTRATE (Neogen Corp) were added to each well. This was allowed to develop for 5–15 minutes, the reaction being stopped by the addition of 100 μL of 1 N HCl. Color was read via a microplate reader at 450 nm and collected by computer for analysis. Criteria for selection were binding to the well in which the PBS was added and significant inhibition of binding in the well receiving the free drug.
(§3) The antibody containing culture supernatants from the expansion cultures were subjected to specificity analysis by the following procedure. First, the titer appropriate for analysis was determined by dilution analysis. A dilution of antibody providing for approximately 50% of maximal binding was selected for proceeding to the next step. Second, binding to the atazanavir-BSA conjugate was examined at the above antibody dilution, in the presence of varying amounts of seven HIV protease inhibitor drugs. The data was subjected to analysis by non-linear regression curve fitting to a 4-parameter logistic function. That parameter which describes the concentration of the free drug which corresponds to 50% of the binding in the absence of free drug is termed the ED50 for that drug. The specificity of the antibody can thus be described by comparing the ED50 of the cognate drug, atazanavir, or atz ED50 with the other values for other drugs fitted from those data according to the following equation (using nelfinavir data for this example):
(§4) [formula] The four parameter logistic function used is
(§5) [formula] where S is the curvature parameter, ODmax is the optical density with 0 drug concentration, ODmin is the optical density of the background of the instrument, and ODx is the optical density observed at drug concentration X in moles/liter (M/L).
(§6) Atazanavir metabolite is 4-pyridin-2-yl-benzoic acid (Synchem, Inc.).

antibody ATZ 4.1 = assay: Antibody specificity ELISA (competition of free drug with atazanavir-BSA conjugate), antibody ATZ 4.1; type: binding, mouse; conditions: for ED50 (M/L): free drug concentration giving 50% of binding in absence of free drug, 4-parameter logistic fit; for % Cross Rx: relative to atazanavir ED50
Procedure: as §1, §2, §3, §4, §5, §6

SMILES | ED50 (M/L) (antibody ATZ 3.1) | % Cross Rx (antibody ATZ 3.1) [%] | ED50 (M/L) (antibody ATZ 4.1) | % Cross Rx (antibody ATZ 4.1) [%]
Cc1cccc(C)c1OCC(=O)N[C@@H](Cc1ccccc1)[C@@H](O)C[C@H](Cc1ccccc1)NC(=O)[C@H](C(C)C)N1CCCNC1=O [Lopinavir, lopinavir] | >2 × 10^−6 M/L | <1 | >2 × 10^−6 M/L | <1
O=C(O)c1ccc(-c2ccccn2)cc1 [Atazanavir metabolite, 4-pyridin-2-yl-benzoic acid] | >2 × 10^−6 M/L | <1 | >2 × 10^−6 M/L | <1
COC(=O)N[C@H](C(=O)N[C@@H](Cc1ccccc1)[C@@H](O)CN(Cc1ccc(-c2ccccn2)cc1)NC(=O)[C@@H](NC(=O)OC)C(C)(C)C)C(C)(C)C [Atazanavir, atazanavir] | 7 × 10^−7 M/L | 100 | 4.4 × 10^−6 M/L | 100
CC(C)CN(C[C@@H](O)[C@H](Cc1ccccc1)NC(=O)O[C@H]1CCOC1)S(=O)(=O)c1ccc(N)cc1 [Amprenavir, amprenavir] | >2 × 10^−6 M/L | <1 | >2 × 10^−6 M/L | <1
CC(C)c1nc(CN(C)C(=O)N[C@H](C(=O)N[C@@H](Cc2ccccc2)C[C@H](O)[C@H](Cc2ccccc2)NC(=O)OCc2cncs2)C(C)C)cs1 [Ritonavir, ritonavir] | >2 × 10^−6 M/L | <1 | >2 × 10^−6 M/L | <1
Cc1c(O)cccc1C(=O)N[C@@H](CSc1ccccc1)[C@H](O)CN1C[C@H]2CCCC[C@H]2C[C@H]1C(=O)NC(C)(C)C [Nelfinavir, nelfinavir] | >2 × 10^−6 M/L | <1 | >2 × 10^−6 M/L | <1
CC(C)(C)NC(=O)[C@@H]1CN(Cc2cccnc2)CCN1C[C@@H](O)C[C@@H](Cc1ccccc1)C(=O)N[C@H]1c2ccccc2C[C@H]1O [Indinavir, indinavir] | >2 × 10^−6 M/L | <1 | >2 × 10^−6 M/L | <1
CC(C)(C)NC(=O)[C@@H]1C[C@@H]2CCCC[C@@H]2CN1C[C@@H](O)[C@H](Cc1ccccc1)NC(=O)[C@H](CC(N)=O)NC(=O)c1ccc2ccccc2n1 [Saquinavir, saquinavir] | >2 × 10^−6 M/L | <1 | >2 × 10^−6 M/L | <1
